Data as given in patent US20250195530A1, “POLQ INHIBITORS” (ASTRAZENECA AB, priority 2022, published 2025).

test system: DLD-1 BRCA2−/− cells; test: Homologous recombination synthetic lethal inhibition of proliferation, DLD-1 BRCA2-/- (Cell Titre Glo 3D); format: cell-based; conditions: Homo sapiens, DLD-1, DLD-1 BRCA2 −/− cells; mean; read-out: POLQ PD Prolif Lumin BRCA2 −/− mean pIC50 (converted)
Procedure, shortened: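 Cells are seeded in RPMI 1640 (phenol red free, 10% FBS, GlutaMAX) onto pre-dosed compound (10 μM to 0.51 nM, three-fold). Plates are incubated at 37 °C, and medium plus compound are refreshed on day 6. Viability is read by CellTiter-Glo 3D at day 7 (DLD-1) or day 12 (DLD-1 BRCA2−/−), and the IC50 is fitted.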

Point of comparison: `Cc1ccnc(Cn2c(-c3ccc(C(=O)NCC(F)F)cc3Cl)nc3c(OC4(C)CC4)ncnc32)c1` [Example T93, 3-chloro-N-(2,2-difluoroethyl)-4-(6-(1-methylcyclopropoxy)-9-((4-methylpyridin-2-yl)methyl)-9H-purin-8-yl)benzamide], IC50 316 nM. Against it:
- CC1(Oc2ncnc3c2nc(-c2ccc(OCCCO)cc2Cl)n3Cc2cc(C(F)(F)F)ccn2)CC1 [Example T94, 3-(3-chloro-4-(6-(1-methylcyclopropoxy)-9-((4-(trifluoromethyl)pyridin-2-yl)methyl)-9H-purin-8-yl)phenoxy)propan-1-ol] — 1.6-fold lower, 200 nM
- Cc1ccnc(Cn2c(-c3ccc(N4CCC4=O)cc3Cl)nc3c(OC4(C)CC4)ncnc32)c1 [Example T95, 1-(3-chloro-4-(6-(1-methylcyclopropoxy)-9-((4-methylpyridin-2-yl)methyl)-9H-purin-8-yl)phenyl)azetidin-2-one] — 1.6-fold lower, 200 nM
- Cc1ccnc(Cn2c(-c3ccc(N4CCOC4=O)cc3Cl)nc3c(OC4(C)CC4)ncnc32)c1 [Example T96, 3-(3-chloro-4-(6-(1-methylcyclopropoxy)-9-((4-methylpyridin-2-yl)methyl)-9H-purin-8-yl)phenyl)oxazolidin-2-one] — 3.2-fold lower, 100 nM
- CC1(Oc2ncnc3c2nc(-c2ccc(NCCC(=O)O)cc2Cl)n3Cc2cccc(Cl)c2)CC1 [Example T97, 3-((3-chloro-4-(9-(3-chlorobenzyl)-6-(1-methylcyclopropoxy)-9H-purin-8-yl)phenyl)amino)propanoic acid] — 4-fold higher, 1260 nM
- Cc1ccnc(Cn2c(-c3ccc(OCC(F)(F)CO)cc3Cl)nc3c(OC4(C)CC4)ncnc32)c1 [Example T98, 3-(3-chloro-4-(6-(1-methylcyclopropoxy)-9-((4-methylpyridin-2-yl)methyl)-9H-purin-8-yl)phenoxy)-2,2-difluoropropan-1-ol] — 3.2-fold lower, 100 nM
- Cc1cccc(Cn2c(-c3ccc(CC(N)=O)cc3Cl)nc3c(OC4(C)CC4)ncnc32)c1 [Example T99, 2-(3-chloro-4-(9-(3-methylbenzyl)-6-(1-methylcyclopropoxy)-9H-purin-8-yl)phenyl)acetamide] — 4-fold lower, 79.4 nM
- Cc1ccc(Cn2c(-c3ccc(CC(N)=O)cc3Cl)nc3c(OC4(C)CC4)ncnc32)cc1 [Example T100, 2-(3-chloro-4-(9-(4-methylbenzyl)-6-(1-methylcyclopropoxy)-9H-purin-8-yl)phenyl)acetamide] — 2.5-fold higher, 794 nM
- Cc1ccccc1Cn1c(-c2ccc(CC(N)=O)cc2Cl)nc2c(OC3(C)CC3)ncnc21 [Example T101, 2-(3-chloro-4-(9-(2-methylbenzyl)-6-(1-methylcyclopropoxy)-9H-purin-8-yl)phenyl)acetamide] — 1.6-fold higher, 501 nM
- CC1(Oc2ncnc3c2nc(-c2ccc(CC(N)=O)cc2Cl)n3CCc2ccccc2)CC1 [Example T102, 2-(3-chloro-4-(6-(1-methylcyclopropoxy)-9-phenethyl-9H-purin-8-yl)phenyl)acetamide] — 5-fold higher, 1580 nM
- Cc1ccnc(Cn2c(-c3ccc(OC4COC4)cc3Cl)nc3c(OC4(C)CC4)ncnc32)c1 [Example T103, 8-(2-chloro-4-(oxetan-3-yloxy)phenyl)-6-(1-methylcyclopropoxy)-9-((4-methylpyridin-2-yl)methyl)-9H-purine] — 2-fold lower, 158 nM

same assay, conditions: Homo sapiens, DLD-1, first proliferation column (c5); DLD-1 BRCA2-/-; read-out: POLQ PD Prolif Lumin (converted)

Point of comparison: `Cc1cnc(Cn2c(-c3ccc(OCCN4CC(O)C4)cc3Cl)nc3c(OC4(C)CC4)ncnc32)s1` [Example T141, 1-(2-(3-chloro-4-(6-(1-methylcyclopropoxy)-9-((5-methylthiazol-2-yl)methyl)-9H-purin-8-yl)phenoxy)ethyl)azetidin-3-ol], IC50 501 nM. Against it:
- COc1cccc(Cn2c(-c3ccc(CC(N)=O)cc3Cl)nc3c(OC4(C)CC4)ncnc32)c1 [Example T105, 2-(3-chloro-4-(9-(3-methoxybenzyl)-6-(1-methylcyclopropoxy)-9H-purin-8-yl)phenyl)acetamide] — within 1.5-fold, 631 nM
- COc1ccc(Cn2c(-c3ccc(CC(N)=O)cc3Cl)nc3c(OC4(C)CC4)ncnc32)cc1 [Example T106, 2-(3-chloro-4-(9-(4-methoxybenzyl)-6-(1-methylcyclopropoxy)-9H-purin-8-yl)phenyl)acetamide] — within 1.5-fold, 631 nM
- Cc1ccnc(Cn2c(-c3ccc(OCCCF)cc3Cl)nc3c(OC4(C)CC4)ncnc32)c1 [Example T108, 8-(2-chloro-4-(3-fluoropropoxy)phenyl)-6-(1-methylcyclopropoxy)-9-((4-methylpyridin-2-yl)methyl)-9H-purine] — 4-fold lower, 126 nM
- CNC(=O)Cc1ccc(-c2nc3c(OC4(C)CC4)ncnc3n2Cc2cc(C)ccn2)c(Cl)c1 [Example T113, 2-(3-chloro-4-(6-(1-methylcyclopropoxy)-9-((4-methylpyridin-2-yl)methyl)-9H-purin-8-yl)phenyl)-N-methylacetamide] — 1.6-fold lower, 316 nM
- CCNC(=O)c1ccc(-c2nc3c(OC4(C)CC4)ncnc3n2Cc2cc(C)ccn2)c(Cl)c1 [Example T114, 3-chloro-N-ethyl-4-(6-(1-methylcyclopropoxy)-9-((4-methylpyridin-2-yl)methyl)-9H-purin-8-yl)benzamide] — 1.6-fold lower, 316 nM
- Cc1ccnc(Cn2c(-c3ccc(N4CC(O)C4)cc3Cl)nc3c(OC4(C)CC4)ncnc32)c1 [Example T115, 1-(3-chloro-4-(6-(1-methylcyclopropoxy)-9-((4-methylpyridin-2-yl)methyl)-9H-purin-8-yl)phenyl)azetidin-3-ol] — 2.5-fold lower, 200 nM
- CNC(=O)COc1ccc(-c2nc3c(OC4(C)CC4)ncnc3n2Cc2cc(C)ccn2)c(Cl)c1 [Example T118, 2-(3-chloro-4-(6-(1-methylcyclopropoxy)-9-((4-methylpyridin-2-yl)methyl)-9H-purin-8-yl)phenoxy)-N-methylacetamide] — 2-fold lower, 251 nM
- CNC(=O)COc1ccc(Cl)c(-c2nc3c(OC4(C)CC4)ncnc3n2Cc2cc(C)ccn2)c1 [Example T122, 2-(4-chloro-3-(6-(1-methylcyclopropoxy)-9-((4-methylpyridin-2-yl)methyl)-9H-purin-8-yl)phenoxy)-N-methylacetamide] — 13-fold higher, 6310 nM
- Cc1ccnc(Cn2c(-c3ccc(OCCCO)cc3Cl)nc3c(OC4(C)CC4)ncnc32)c1 [Example T124, 3-(3-chloro-4-(6-(1-methylcyclopropoxy)-9-((4-methylpyridin-2-yl)methyl)-9H-purin-8-yl)phenoxy)propan-1-ol] — 6.3-fold lower, 79.4 nM
- COCCOc1ccc(-c2nc3c(OC4(C)CC4)ncnc3n2Cc2cc(C)ccn2)c(Cl)c1 [Example T125, 8-(2-chloro-4-(2-methoxyethoxy)phenyl)-6-(1-methylcyclopropoxy)-9-((4-methylpyridin-2-yl)methyl)-9H-purine] — 5-fold lower, 100 nM
- Cc1ccnc(Cn2c(-c3ccc(NC(=O)N(C)C)cc3Cl)nc3c(OC4(C)CC4)ncnc32)c1 [Example T130, 3-(3-chloro-4-(6-(1-methylcyclopropoxy)-9-((4-methylpyridin-2-yl)methyl)-9H-purin-8-yl)phenyl)-1,1-dimethylurea] — the same, 501 nM
- CNC(=O)CNc1ccc(-c2nc3c(OC4(C)CC4)ncnc3n2Cc2cc(C)ccn2)c(Cl)c1 [Example T131, 2-((3-chloro-4-(6-(1-methylcyclopropoxy)-9-((4-methylpyridin-2-yl)methyl)-9H-purin-8-yl)phenyl)amino)-N-methylacetamide] — 1.6-fold higher, 794 nM
- Cc1ccnc(Cn2c(-c3ccc(OCCNC(N)=O)cc3Cl)nc3c(OC4(C)CC4)ncnc32)c1 [Example T133, 1-(2-(3-chloro-4-(6-(1-methylcyclopropoxy)-9-((4-methylpyridin-2-yl)methyl)-9H-purin-8-yl)phenoxy)ethyl)urea] — 2-fold lower, 251 nM
- Cc1ccnc(Cn2c(-c3ccc(CCNS(C)(=O)=O)cc3Cl)nc3c(OC4(C)CC4)ncnc32)c1 [Example T143, N-(3-chloro-4-(6-(1-methylcyclopropoxy)-9-((4-methylpyridin-2-yl)methyl)-9H-purin-8-yl)phenethyl)methanesulfonamide] — within 1.5-fold, 398 nM
- Cc1ccnc(Cn2c(-c3ccc(OCCNS(C)(=O)=O)cc3Cl)nc3c(OC4(C)CC4)ncnc32)c1 [Example T144, N-(2-(3-chloro-4-(6-(1-methylcyclopropoxy)-9-((4-methylpyridin-2-yl)methyl)-9H-purin-8-yl)phenoxy)ethyl)methanesulfonamide] — 3.2-fold lower, 158 nM
- C#CCNC(=O)c1ccc(-c2nc3c(OC4(C)CC4)ncnc3n2Cc2cc(C)ccn2)c(Cl)c1 [Example T152, 3-chloro-4-(6-(1-methylcyclopropoxy)-9-((4-methylpyridin-2-yl)methyl)-9H-purin-8-yl)-N-(prop-2-yn-1-yl)benzamide] — within 1.5-fold, 398 nM
- Cc1ccnc(Cn2c(-c3ccc(C(=O)N4CC(F)C4)cc3Cl)nc3c(OC4(C)CC4)ncnc32)c1 [Example T153, (3-chloro-4-(6-(1-methylcyclopropoxy)-9-((4-methylpyridin-2-yl)methyl)-9H-purin-8-yl)phenyl)(3-fluoroazetidin-1-yl)methanone] — the same, 501 nM
- Cc1ccnc(Cn2c(-c3ccc(OCC(=O)NCC(F)(F)F)cc3Cl)nc3c(OC4(C)CC4)ncnc32)c1 [Example T154, 2-(3-chloro-4-(6-(1-methylcyclopropoxy)-9-((4-methylpyridin-2-yl)methyl)-9H-purin-8-yl)phenoxy)-N-(2,2,2-trifluoroethyl)acetamide] — 2.5-fold lower, 200 nM
- CC1(Oc2ncnc3c2nc(-c2ccc(CCCC(=O)O)cc2Cl)n3Cc2cccc(Cl)c2)CC1 [Example T155, 4-(3-chloro-4-(9-(3-chlorobenzyl)-6-(1-methylcyclopropoxy)-9H-purin-8-yl)phenyl)butanoic acid] — within 1.5-fold, 631 nM
- COC(=O)CCOc1ccc(-c2nc3c(OC4(C)CC4)ncnc3n2Cc2cccc(Cl)c2)c(Cl)c1 [Example T156, methyl 3-(3-chloro-4-(9-(3-chlorobenzyl)-6-(1-methylcyclopropoxy)-9H-purin-8-yl)phenoxy)propanoate] — 2.5-fold lower, 200 nM
